Source: the NIST ThermoML archive (doi:10.1016/j.jct.2019.02.020)

Assay: mn = molality of the nth substance listed, in mol/kg
Settings: 100 kPa, Liquid; for viscosity: Falling or rolling sphere viscometry; for mass density: Vibrating tube method

O=S(=O)(O)O [sulfuric acid] + O
Settings | mass density, 283.15 K [kg/m3] | mass density, 288.15 K [kg/m3] | mass density, 293.15 K [kg/m3] | mass density, 298.15 K [kg/m3] | viscosity, 283.15 K [mPa·s] | viscosity, 288.15 K [mPa·s] | viscosity, 293.15 K [mPa·s] | viscosity, 298.15 K [mPa·s]
m1 = 0.05 | 1003.29 | 1002.61 | 1001.64 | 1000.42 | 1.322 | 1.151 | 1.014 | 0.9019
m1 = 0.1 | 1006.64 | 1005.89 | 1004.86 | 1003.57 | 1.326 | 1.156 | 1.019 | 0.9068
m1 = 0.1498 | 1009.9 | 1009.09 | 1007.99 | 1006.66 | 1.339 | 1.167 | 1.029 | 0.916
m1 = 0.1997 | 1013.13 | 1012.25 | 1011.1 | 1009.71 | 1.352 | 1.179 | 1.04 | 0.9259
m1 = 0.2501 | 1016.29 | 1015.35 | 1014.14 | 1012.71 | 1.363 | 1.19 | 1.049 | 0.9338
m1 = 0.2999 | 1019.54 | 1018.53 | 1017.27 | 1015.79 | 1.375 | 1.2 | 1.058 | 0.9443
m1 = 0.3312 | – | – | 1019.13 | – | 1.386 | 1.212 | 1.07 | 0.9534
m1 = 0.3996 | 1025.76 | 1024.63 | 1023.27 | 1021.7 | 1.399 | 1.221 | 1.077 | 0.9597
m1 = 0.5001 | 1031.92 | 1030.68 | 1029.22 | 1027.57 | 1.415 | 1.236 | 1.091 | 0.9715
m1 = 0.6672 | – | – | 1039.1 | – | 1.48 | 1.294 | 1.144 | 1.024
m1 = 0.9962 | – | – | 1057.95 | – | 1.502 | 1.321 | 1.172 | 1.049
m1 = 1.331 | – | – | 1076.44 | – | 1.653 | 1.45 | 1.282 | 1.144
m1 = 1.669 | – | – | 1094.43 | – | 1.733 | 1.519 | 1.343 | 1.197
m1 = 2 | – | – | 1111.51 | – | 1.817 | 1.589 | 1.406 | 1.252
m1 = 2.327 | – | – | 1127.75 | – | 1.914 | 1.672 | 1.476 | 1.314
m1 = 2.667 | – | – | 1143.44 | – | 2.017 | 1.768 | 1.569 | 1.391
m1 = 2.994 | – | – | 1161.33 | – | 2.154 | 1.882 | 1.663 | 1.474
m1 = 3.33 | – | – | 1173.91 | – | 2.28 | 1.978 | 1.725 | 1.534
m1 = 3.667 | – | – | 1188.61 | – | 2.331 | 2.036 | 1.794 | 1.596
